Measured values: ChEMBL document CHEMBL2074158, “Interaction of omeprazole, lansoprazole and pantoprazole with P-glycoprotein” (Naunyn Schmiedebergs Arch Pharmacol, 2001)

How the values were obtained:
[1] = biological target: T1, ATP-dependent translocase ABCB1 (Homo sapiens, UniProt P08183); assay: TP_TRANSPORTER: transepithelial transport (basal to apical) in MDR1-expressing LLC-PK1 cells; type: functional, cell-based; details: pig
[2] = biological target: T1, ATP-dependent translocase ABCB1; assay: TP_TRANSPORTER: inhibition of Digoxin transepithelial transport (basal to apical) (Digoxin: 5 uM) in Caco-2 cells; type: functional, cell-based

T1 sequence (P08183 whole entry): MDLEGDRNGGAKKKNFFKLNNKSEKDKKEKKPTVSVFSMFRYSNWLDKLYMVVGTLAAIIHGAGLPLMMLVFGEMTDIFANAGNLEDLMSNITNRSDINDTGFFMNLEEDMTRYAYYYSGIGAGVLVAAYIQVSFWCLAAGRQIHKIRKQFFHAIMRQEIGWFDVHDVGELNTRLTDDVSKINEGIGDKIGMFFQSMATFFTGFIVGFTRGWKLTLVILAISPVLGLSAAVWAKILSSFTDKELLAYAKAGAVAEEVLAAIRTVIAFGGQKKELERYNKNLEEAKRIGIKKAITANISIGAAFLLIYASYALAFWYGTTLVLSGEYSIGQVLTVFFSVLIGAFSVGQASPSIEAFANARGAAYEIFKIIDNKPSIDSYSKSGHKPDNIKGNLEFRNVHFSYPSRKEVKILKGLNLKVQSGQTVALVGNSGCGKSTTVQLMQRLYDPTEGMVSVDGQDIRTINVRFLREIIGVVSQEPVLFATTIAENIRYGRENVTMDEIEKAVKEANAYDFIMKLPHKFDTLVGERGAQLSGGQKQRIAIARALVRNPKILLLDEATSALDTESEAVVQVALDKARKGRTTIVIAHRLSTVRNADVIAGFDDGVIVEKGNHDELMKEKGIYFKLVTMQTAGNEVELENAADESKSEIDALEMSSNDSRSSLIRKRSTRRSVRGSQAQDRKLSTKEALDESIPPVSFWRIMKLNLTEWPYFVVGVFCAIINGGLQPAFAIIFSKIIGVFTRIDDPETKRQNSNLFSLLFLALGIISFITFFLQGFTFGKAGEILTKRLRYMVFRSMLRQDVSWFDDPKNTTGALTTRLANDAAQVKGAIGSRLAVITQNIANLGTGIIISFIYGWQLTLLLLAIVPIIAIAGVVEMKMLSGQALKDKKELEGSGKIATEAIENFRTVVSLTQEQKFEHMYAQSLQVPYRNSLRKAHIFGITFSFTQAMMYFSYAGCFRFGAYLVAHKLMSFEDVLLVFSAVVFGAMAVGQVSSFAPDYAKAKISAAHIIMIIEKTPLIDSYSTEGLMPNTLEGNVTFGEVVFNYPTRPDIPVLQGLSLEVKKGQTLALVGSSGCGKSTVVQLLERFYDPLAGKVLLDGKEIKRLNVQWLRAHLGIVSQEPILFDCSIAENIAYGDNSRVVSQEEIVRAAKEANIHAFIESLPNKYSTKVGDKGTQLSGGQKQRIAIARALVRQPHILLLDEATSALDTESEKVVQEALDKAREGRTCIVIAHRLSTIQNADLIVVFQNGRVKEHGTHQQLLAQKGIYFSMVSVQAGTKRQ

Activity [1]	IC50 [2]	Compound
substrate [+]	17.9 µM	COc1ccnc(C[S+]([O-])c2nc3ccc(OC(F)F)cc3[nH]2)c1OC (stereo unspecified) [PANTOPRAZOLE]
substrate [+]	17.7 µM	COc1ccc2[nH]c([S+]([O-])Cc3ncc(C)c(OC)c3C)nc2c1 (stereo unspecified) [OMEPRAZOLE]

Compound	Activity [1]	IC50 [2]
Cc1c(OCC(F)(F)F)ccnc1C[S+]([O-])c1nc2ccccc2[nH]1 (stereo unspecified) [LANSOPRAZOLE]	substrate [+]	62.8 µM
